{"source": "patent US20130280391A1", "about": "“ANTI-MICROBIAL WASH COMPOSITIONS INCLUDING CERAGENIN COMPOUNDS AND METHODS OF USE FOR TREATING NON-MEAT FOOD PRODUCTS” (BRIGHAM YOUNG UNIVERSITY, priority 2012, published 2013)", "key": {"Salmonella bacteria": {"system": "Salmonella bacteria", "assay": "Example 2: killing of Salmonella inoculated on food product samples by dip in wash composition", "type": "cell-based", "conditions": "30 second dip; for level of Salmonella bacteria in the rinsate: positive control nearly 10^3.5 CFUs/mL", "protocol": "(§1) Example 2 was performed to determine the effectiveness of an anti-microbial wash composition including a ceragenin compound in controlling growth of Salmonella bacteria by fighting off a Salmonella inoculation. Example 3 was similarly performed to determine the effectiveness of the wash composition in controlling growth of Campylobacter bacteria by fighting off a Campylobacter inoculation. Examples 2 and 3 simulate the effectiveness of the present anti-microbial wash compositions to kill Salmonella and Campylobacter on a food product where the food product has become contaminated with Salmonella bacteria or Campylobacter bacteria.\n(§2) A total of 15 food product samples were used for these tests. The 15 samples were divided into five groups of three each. Three samples were left untreated to serve as a negative control in order to observe natural levels of bacteria present on the samples. The remaining 12 samples were then inoculated with 1 mL of Salmonella and 1 mL of Campylobacter. The samples were allowed to dry for 20 minutes in order for the bacteria to adhere to the surface of the food product samples. One group of three of the inoculated samples, designated the positive control, were then rinsed with a wash composition including no anti-microbial agent to determine the level of bacteria after inoculation.\n(§3) Each sample was withdrawn after 30 seconds. […] Each sample was withdrawn after 30 seconds. The fifth group of three inoculated samples was dipped one by one into a comparative proprietary non-CSA wash composition. Each of the samples was then rinsed, and the rinsate was collected to determine the levels and types of bacteria from each group. […] In other words, there were no changes to color, texture, taste, or smell, as a result of application of the ceragenin wash compositions.\nIn other words, the wash composition including 500 ppm ceragenin compound killed 100% of Salmonella bacteria present."}, "Campylobacter bacteria": {"system": "Campylobacter bacteria", "assay": "Example 3: killing of Campylobacter inoculated on food product samples by dip in wash composition", "type": "cell-based", "conditions": "30 second dip; for log reduction of Campylobacter: versus positive control", "protocol": "as §1, §2, §3\nIn other words, the treatment was effective in killing 93.7% of the Campylobacter bacteria. […] In other words, the treatment was effective in killing 80% of the Campylobacter bacteria."}, "[1]": {"conditions": "1000 ppm by weight aqueous wash"}}}
{"smiles": "CCCCCCCCOC(=O)CC[C@@H](C)[C@H]1CC[C@H]2[C@@H]3[C@H](OC(=O)CCN)C[C@@H]4C[C@H](OC(=O)CCN)CC[C@]4(C)[C@H]3C[C@H](OC(=O)CCN)[C@]12C", "note": "[CSA-44]", "values": [{"measurement": "Salmonella bacteria killed", "setting": "Salmonella bacteria; 500 ppm by weight aqueous wash", "value": 100, "unit": "%"}, {"measurement": "level of Salmonella bacteria in the rinsate", "setting": "Salmonella bacteria; 500 ppm by weight aqueous wash", "value": "no detectable level of Salmonella bacteria"}, {"measurement": "level of Salmonella bacteria in the rinsate", "setting": "Salmonella bacteria; [1]", "value": "no detectable level of Salmonella bacteria"}, {"measurement": "Campylobacter bacteria killed", "setting": "Campylobacter bacteria; 500 ppm by weight aqueous wash", "value": 93.7, "unit": "%"}, {"measurement": "log reduction of Campylobacter", "setting": "Campylobacter bacteria; 500 ppm by weight aqueous wash", "value": 1.2, "unit": "log"}, {"measurement": "Campylobacter bacteria killed", "setting": "Campylobacter bacteria; [1]", "value": 80, "unit": "%"}, {"measurement": "log reduction of Campylobacter", "setting": "Campylobacter bacteria; [1]", "value": 0.8, "unit": "log"}]}
